# Values of other authors as cited in patent publication US20070015926A1, “Method of preparing R-(+)-alpha-lipoic acid and its salt” (Nanjing Rally Biochemical Inc., priority 2005, published 2007).
# Conditions: if given adequate oxygen
structure (smiles),measurement,value
O=C(O)CCCC[C@@H]1CCSS1 [R-(+)-α-Lipoic Acid],polymerization,susceptible to be polymerized
